Laboratory results published in paper PMC9401600 (Chemmedchem, 2022).

What was measured:
[1] = PAMPA‐BBB assay; assay type: in vitro ADME; conditions: for predictive penetration in the CNS: PAMPA‐BBB classification; for Papp: pig, PAMPA‐BBB, PBS:EtOH (70 : 30), read-out: Permeability (Pe) experimental value
Description: To evaluate the brain penetration of the different compounds, a parallel artificial membrane permeation assay for BBB was used, following the method described by Di et al..[33] The in vitro Pe of fourteen commercial drugs through lipid extract of porcine brain membrane together with the test compounds were determined. Commercial drugs and assayed compounds were tested using a mixture of PBS:EtOH (70 : 30).

[2] = target: T1, EHMT1 (GLP) (Homo sapiens, UniProt Q9H9B1); test: EHMT1 (GLP) chemiluminescent assay; assay type: biochemical; conditions: 0.01 μM to 10 μM
T1 construct: purchased
T1 sequence (Q9H9B1 1-1298): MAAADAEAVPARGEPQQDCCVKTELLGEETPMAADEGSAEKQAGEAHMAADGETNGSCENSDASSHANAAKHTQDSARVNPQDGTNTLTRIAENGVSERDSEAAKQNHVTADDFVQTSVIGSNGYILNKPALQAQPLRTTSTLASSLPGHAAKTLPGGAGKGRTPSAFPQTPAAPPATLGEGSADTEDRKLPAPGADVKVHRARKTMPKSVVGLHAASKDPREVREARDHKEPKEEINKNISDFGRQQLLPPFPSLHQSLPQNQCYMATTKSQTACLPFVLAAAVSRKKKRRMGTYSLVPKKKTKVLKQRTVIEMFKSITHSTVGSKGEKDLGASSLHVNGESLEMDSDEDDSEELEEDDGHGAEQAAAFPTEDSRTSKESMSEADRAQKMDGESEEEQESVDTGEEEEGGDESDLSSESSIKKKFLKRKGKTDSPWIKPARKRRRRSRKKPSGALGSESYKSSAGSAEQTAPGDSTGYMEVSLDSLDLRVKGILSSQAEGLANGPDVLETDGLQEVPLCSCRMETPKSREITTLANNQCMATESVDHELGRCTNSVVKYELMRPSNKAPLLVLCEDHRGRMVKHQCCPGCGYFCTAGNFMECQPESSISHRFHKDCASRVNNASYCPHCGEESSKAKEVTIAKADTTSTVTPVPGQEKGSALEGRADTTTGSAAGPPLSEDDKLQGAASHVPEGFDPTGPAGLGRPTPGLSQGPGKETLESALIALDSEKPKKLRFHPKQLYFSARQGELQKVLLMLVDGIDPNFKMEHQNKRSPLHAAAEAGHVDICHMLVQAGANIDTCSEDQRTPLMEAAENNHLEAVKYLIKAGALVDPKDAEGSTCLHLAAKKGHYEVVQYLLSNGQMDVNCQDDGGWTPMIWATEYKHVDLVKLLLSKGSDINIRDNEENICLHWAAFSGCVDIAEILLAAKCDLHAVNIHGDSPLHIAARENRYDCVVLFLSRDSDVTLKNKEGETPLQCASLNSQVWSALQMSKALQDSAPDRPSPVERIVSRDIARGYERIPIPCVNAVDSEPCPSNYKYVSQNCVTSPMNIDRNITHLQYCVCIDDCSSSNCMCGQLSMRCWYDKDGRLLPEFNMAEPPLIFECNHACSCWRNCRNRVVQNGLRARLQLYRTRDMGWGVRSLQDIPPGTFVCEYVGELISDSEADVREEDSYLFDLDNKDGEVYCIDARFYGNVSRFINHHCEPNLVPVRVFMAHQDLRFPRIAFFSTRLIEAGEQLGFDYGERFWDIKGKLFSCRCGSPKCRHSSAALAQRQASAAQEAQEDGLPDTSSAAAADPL
Description: Last, but not least, further characterization of the best candidates was performed assessing their selectivity. Thus, we tested them against EHMT1 (G9a‐like protein, GLP). […] However, they presented a very low percentage, and furthermore this trend was not observed at high doses.
The assay was carried out using EHMT1 (GLP) Chemiluminescent Assay kit. Compounds were added on a 96‐well plate precoated with histone substrate supplied by kit. 30 μL of master mixture SAM were added and the reaction was initiated adding 20 μL of diluted EHMT1 (GLP) enzyme. The reaction was incubated at room temperature (RT) for 1 hour. The plate was washed three times with 200 μl TBST buffer. 100 μL of Blocking buffer were added to every well and the plate was incubated at RT for 10 minutes with shaking. Supernatant was removed and 100 μl of Primary antibody were added per well. The plate was incubated at RT for 1 hour with slow shaking. The plate was washed three times with 200 μl TBST buffer. 100 μL of Blocking buffer were added to every well and the plate was incubated at RT for 10 minutes with shaking. 100 μl of Secondary HRP‐labeled antibody were added per well and the plate was incubated at RT for 30 minutes with slow shaking. The plate was washed three times with 200 μl TBST buffer. Finally, 100 μl of substrate mix were added and the luminescence was measurement with integration time of 1 second in Perkin Elmer EnSpire Multimode plate reader.

[3] = tested on: C. elegans strain CL2006; test: Locomotion assay (motor index); assay type: in vivo, Caenorhabditis elegans; conditions: CL2006 worms, 0.001-1 μM, chronic treatment, compared with UNC0638
Description: One of the best‐characterized transgenic AD strains in C. elegans is the CL2006 strain, which contains the Punc‐54::Aβ1–42 transgene, showing a progressive adult‐onset paralysis. Then, to establish a dose‐response profile, the pharmacological impact of G9a inhibition was evaluated in a locomotion assay with this C. elegans strain. We performed a motility assay where animals were placed in the center of a seeded plate and allowed to explore the environment freely. […] N2 (WT), and CL2006 strain were treated with dimethyl sulfoxide (DMSO) 1 %, used as a vehicle, which should not cause a relevant locomotor defective phenotype. […] The motor index for each condition was calculated using the motor performance of Bristol (N2) (WT, 100 %) and the transgenic AD strain (CL2006, 0 %) animals as reference.
Locomotion assay of G9a inhibitors was assessed to obtain dose‐response profile, evaluating the impact of the pharmacology treatment in motor dysfunction presented by the transgenic strains CL2006. Nematodes were synchronized by alkaline hypochlorite treatment, and drug assay was performed as described above, except for the OP50 bacteria OD595 adjusted to 0.9, and the duration of the treatment was 5 days. N2 (WT), and the transgenic strain CL2006 were treated in liquid media for 4 days at 20 °C and 180 rpm, starting at the L1 stage. On day 5 of age, worms were transferred from the 96‐well plates onto an unseeded NGM plate for 45 minutes before starting the trial, allowing the plates to dry and worms. Locomotion assays were performed in 30 mm NGM plates, in which the whole surface of the plate was covered by OP50. 5 to 10 adult nematodes were placed in the center of a circle (with 1 cm of diameter) in the seeded 30 mm NGM plates. After 1 min, the number of animals remaining inside the circle was scored as a locomotor defect. Motor behavior assays were run in triplicates (n=3), with a total of at least 100 animals tested per compound concentration. Motor index establishes a score where treated animals showing the same motor defect as CL2006 have an index of 0 %. […] All the results shown in the figures are calculated using the following formula: Motorindex(%)=(LDCL2006vehicle-LDCL2006drug)/(LDCL2006vehicle-LDWTvehicle)×100 LD=locomotiondefective

| Structure (SMILES) | predictive penetration in the CNS [1] | Papp [1] [×10⁻⁶ cm/s] | activity against EHMT1 (in words) [2] | motor index dose‐response profile (in words) [3] |
| --- | --- | --- | --- | --- |
| Cc1cc(N2CCN(Cc3cc(CN4CCCC4)cs3)CC2)nc(N)n1 [E] | CNS+/‐ | 2.2 ± 0.1 | did not inhibit EHMT1 | ameliorating the paralysis presented by CL2006 |
| CCN1C[C@H](NC(=O)c2cc3cc(Cl)ccc3[nH]2)[C@@H](OC)C1 [F, 5‐chloro‐N‐((3S,4S)‐1‐ethyl‐4‐methoxypyrrolidin‐3‐yl)‐1H‐indole‐2‐carboxamide] | CNS+ (compounds of high BBB permeation (CNS+): Pe (10^−6 cm ⋅ s^−1) >5.14) | 10.9 ± 0.4 | slight activity against EHMT1 at low doses | ameliorating the paralysis presented by CL2006 |
| Cc1cc(CNC(=O)C(c2ccc(F)cc2)N2CCCCC2)cnc1C (stereo not drawn) [H] | CNS+ (compounds of high BBB permeation (CNS+): Pe (10^−6 cm ⋅ s^−1) >5.14) | 17.4 ± 2.4 | slight activity against EHMT1 at low doses | ameliorating the paralysis presented by CL2006 |
